test system: IFNα-induced STAT phosphorylation (pSTAT5) in human whole blood; experiment: IFNα-Induced STAT Phosphorylation in Human Whole Blood; type: cell-based; details: 1 h incubation with compound, 1000 U/mL recombinant human IFNα A/D for 15 min, pSTAT5 in CD3 positive population, read-out: IFNα-Induced Stat Phosph. (IC50)
Experimental: IFNα-Induced STAT Phosphorylation in Human Whole Blood
After an hour long incubation with compound, human whole blood (drawn with either EDTA or ACD-A as anti-coagulant) was stimulated with 1000 U/mL recombinant human IFNα A/D (R&D Systems 11200-2) for 15 min. The stimulation was stopped by adding Fix/Lyse buffer (BD 558049). Cells were stained with a CD3 FITC antibody (BD 555916), washed, and permeabilized on ice using Perm III buffer (BD 558050). Cells were then stained with an Alexa-Fluor 647 pSTAT5 (pY694) antibody (BD 612599) for 30 min prior to analysis on the FACS Canto II. The amount of pSTAT5 expression was quantitated by median fluorescence intensity after gating on the CD3 positive population.

Compared with CCC(=O)Nc1cc(Nc2nc(F)ccc2S(C)(=O)=O)c(C(=O)NC)nn1 [Example 179], CCC(=O)Nc1cc(Nc2nc(C)ccc2S(C)(=O)=O)c(C(=O)NC)nn1 [Example 186] is 8-fold lower in IC50: 1.06 µM for the first, 0.132 µM for the second.

Compared with CNC(=O)c1nnc(NC(=O)C2CC2)cc1Nc1nc(F)ccc1S(C)(=O)=O [Example 180], CNC(=O)c1nnc(NC(=O)C2CC2)cc1Nc1nc(C)ccc1S(C)(=O)=O [Example 187] is 2.3-fold lower in IC50: 0.073 µM for the first, 0.032 µM for the second.

CNC(=O)c1nnc(Nc2ccc(OC)nn2)cc1Nc1nc(F)ccc1S(C)(=O)=O [Example 181] and CNC(=O)c1nnc(Nc2ccn(C)n2)cc1Nc1nc(OC)ccc1S(C)(=O)=O [Example 204] are within 1.5-fold of each other in IC50: 0.55 µM for the first, 0.579 µM for the second.

Going from CNC(=O)c1nnc(Nc2ccc(-c3c(F)cccc3F)nn2)cc1Nc1nc(F)ccc1S(C)(=O)=O [Example 182] to CNC(=O)c1nnc(Nc2ccc(-c3c(F)cccc3F)nn2)cc1Nc1nc(C)ccc1S(C)(=O)=O [Example 184], the IC50 falls from 2.23 µM to 0.263 µM (8.5-fold). The second is the more potent here.

Compared with CNC(=O)c1nnc(Nc2cc(C)nc(C)n2)cc1Nc1nc(C)ccc1S(C)(=O)=O [Example 185], CNC(=O)c1nnc(Nc2cc(Cl)c(C(C)(C)O)cn2)cc1Nc1nc(C)ccc1S(C)(=O)=O [Example 194] is 49-fold lower in IC50: 1.73 µM for the first, 0.035 µM for the second. The second is the more potent here.

First: CNC(=O)c1nnc(Nc2ccc(C(C)(C)O)cn2)cc1Nc1nc(C)ccc1S(C)(=O)=O [Example 188]
Second: CNC(=O)c1nnc(Nc2ccc(C(C)(C)O)cn2)cc1Nc1nc(OC)ccc1S(C)(=O)=O [Example 201]
The IC50 of the first is 4-fold lower: 0.006 µM for the first, 0.024 µM for the second. The first is the more potent here.

Compared with CNC(=O)c1nnc(Nc2ccc(-n3cccc(C(F)(F)F)c3=O)cn2)cc1Nc1nc(C)ccc1S(C)(=O)=O [Example 190], CNC(=O)c1nnc(Nc2ccc(N3CCOCC3=O)cn2)cc1Nc1nc(C)ccc1S(C)(=O)=O [Example 196] is 5.1-fold lower in IC50: 0.061 µM for the first, 0.012 µM for the second. The second is the more potent here.

Going from CCNC(=O)Nc1cc(Nc2nc(C)ccc2S(C)(=O)=O)c(C(=O)NC)nn1 [Example 191] to CCCCNC(=O)Nc1cc(Nc2nc(C)ccc2S(C)(=O)=O)c(C(=O)NC)nn1 [Example 193], the IC50 rises from 0.066 µM to 0.165 µM (2.5-fold).

First: CNC(=O)c1nnc(Nc2ccc(N3CCOCC3)cn2)cc1Nc1nc(C)ccc1S(C)(=O)=O [Example 192]
Second: CNC(=O)c1nnc(Nc2ccc(N3CCOCC3)cn2)cc1Nc1nc(OC)ccc1S(C)(=O)=O [Example 203]
The IC50 of the first is 3.5-fold lower: 0.013 µM for the first, 0.046 µM for the second.

First: CNC(=O)c1nnc(Nc2ccn3nccc3n2)cc1Nc1nc(C)ccc1S(C)(=O)=O [Example 195]
Second: CNC(=O)c1nnc(Nc2cc(C3CC3)ccn2)cc1Nc1nc(C)ccc1S(C)(=O)=O [Example 197]
The IC50 of the first is 3.6-fold higher: 0.211 µM for the first, 0.058 µM for the second.

CNC(=O)c1nnc(NC(=O)C2CC2(C)C)cc1Nc1nc(C)ccc1S(C)(=O)=O (stereo not shown) [Example 198] and CNC(=O)c1nnc(NC(=O)C2CC2)cc1Nc1nc(OC)ccc1S(C)(=O)=O [Example 200] are within 1.5-fold of each other in IC50: 0.262 µM for the first, 0.198 µM for the second.

Compared with CNC(=O)c1nnc(Nc2cc(Cl)c(C(C)(C)O)cn2)cc1Nc1nc(OC)ccc1S(C)(=O)=O [Example 202], CNC(=O)c1cnc(Nc2ccc(C(F)(F)F)nn2)cc1Nc1ncccc1S(C)(=O)=O [Example 223] is 1.9-fold higher in IC50: 0.05 µM for the first, 0.094 µM for the second. The first is the more potent here.

Compared with CNC(=O)c1cnc(Nc2ccccn2)cc1Nc1ncccc1S(C)(=O)=O [Example 216], CNC(=O)c1cnc(Nc2cccnn2)cc1Nc1ncccc1S(C)(=O)=O [Example 224] is 1.6-fold higher in IC50: 0.028 µM for the first, 0.044 µM for the second. The first is the more potent here.

First: CNC(=O)c1cnc(Nc2ccc(Cl)cn2)cc1Nc1ncccc1S(C)(=O)=O [Example 217]
Second: CNC(=O)c1cnc(Nc2ccc(C#N)cn2)cc1Nc1ncccc1S(C)(=O)=O [Example 220]
The IC50 of the first is 3.5-fold higher: 0.052 µM for the first, 0.015 µM for the second.

Going from CNC(=O)c1cnc(Nc2cc(C)c(F)cn2)cc1Nc1ncccc1S(C)(=O)=O [Example 218] to CNC(=O)c1cnc(Nc2cc(C#N)ccn2)cc1Nc1ncccc1S(C)(=O)=O [Example 221], the IC50 falls from 0.034 µM to 0.013 µM (2.6-fold).

Compared with CNC(=O)c1cnc(Nc2ccc(C(F)(F)F)cn2)cc1Nc1ncccc1S(C)(=O)=O [Example 219], CNC(=O)c1cnc(Nc2cc(C(F)(F)F)ncn2)cc1Nc1ncccc1S(C)(=O)=O [Example 225] is 6.8-fold higher in IC50: 0.024 µM for the first, 0.164 µM for the second. The first is the more potent here.

In the case of CNC(=O)c1cnc(Nc2cnc(C3CC3)cn2)cc1Nc1ncccc1S(C)(=O)=O [Example 222], the IC50 is reported as 0.059 µM.

same assay, conditions: Homo sapiens, 1 h incubation with compound, 1000 U/mL recombinant human IFNα A/D for 15 min, pSTAT5 in CD3 positive population, read-out: IFNα-Induced Stat Phosph. (IC50)

[2H]C([2H])([2H])NC(=O)c1nnc(Nc2ccc(C(C)(C)NC(C)C)cn2)cc1Nc1ncccc1S(C)(=O)=O [Example 169, 6-((5-(2-(isopropylamino)propan-2-yl)pyridin-2-yl)amino)-N-(methyl-d3)-4-((3-(methylsulfonyl)pyridin-2-yl)amino)pyridazine-3-carboxamide] and [2H]C([2H])([2H])NC(=O)c1nnc(Nc2ccc(C(C)(C)OC(C)=O)cn2)cc1Nc1ncccc1S(C)(=O)=O [Example 171, 2-(6-((6-((methyl-d3)carbamoyl)-5-((3-(methylsulfonyl)pyridin-2-yl)amino)pyridazin-3-yl)amino)pyridin-3-yl)propan-2-yl acetate] are within 1.5-fold of each other in IC50: 0.008 µM for the first, 0.009 µM for the second.

[2H]C([2H])([2H])NC(=O)c1nnc(Nc2ccc(C(F)F)cn2)cc1Nc1ncccc1S(C)(=O)=O [Example 172, 6-((5-(difluoromethyl)pyridin-2-yl)amino)-N-(methyl-d3)-4-((3-(methylsulfonyl)pyridin-2-yl)amino)pyridazine-3-carboxamide] and [2H]C([2H])([2H])NC(=O)c1nnc(Nc2cncc(C)n2)cc1Nc1ncccc1S(C)(=O)=O [Example 173, N-(methyl-d3)-6-((6-methylpyrazin-2-yl)amino)-4-((3-(methylsulfonyl)pyridin-2-yl)amino)pyridazine-3-carboxamide] are within 1.5-fold of each other in IC50: 0.018 µM for the first, 0.017 µM for the second.

First: [2H]C([2H])([2H])NC(=O)c1nnc(NC(=O)C2CC2(Cl)Cl)cc1Nc1ncccc1S(C)(=O)=O (stereo not shown) [Example 174, 6-(2,2-dichlorocyclopropane-1-carboxamido)-N-(methyl-d3)-4-((3-(methylsulfonyl)pyridin-2-yl)amino)pyridazine-3-carboxamide]
Second: [2H]C([2H])([2H])NC(=O)c1nnc(NC(=O)C2CC(F)(F)C2)cc1Nc1ncccc1S(C)(=O)=O [Example 177, 6-(3,3-difluorocyclobutane-1-carboxamido)-N-(methyl-d3)-4-((3-(methylsulfonyl)pyridin-2-yl)amino)pyridazine-3-carboxamide]
The IC50 of the first is 2.8-fold higher: 1.81 µM for the first, 0.648 µM for the second.

Going from [2H]C([2H])([2H])NC(=O)c1nnc(NC(=O)[C@H]2C[C@@H]2C(F)(F)F)cc1Nc1ncccc1S(C)(=O)=O [Example 175, N-(methyl-d3)-4-((3-(methylsulfonyl)pyridin-2-yl)amino)-6-((1S,2S)-2-(trifluoromethyl)cyclopropane-1-carboxamido)pyridazine-3-carboxamide] to [2H]C([2H])([2H])NC(=O)c1nnc(NC(=O)[C@@H]2C[C@H]2C(F)(F)F)cc1Nc1ncccc1S(C)(=O)=O [Example 176, N-(methyl-d3)-4-((3-(methylsulfonyl)pyridin-2-yl)amino)-6-((1R,2R)-2-(trifluoromethyl)cyclopropane-1-carboxamido)pyridazine-3-carboxamide], the IC50 falls from 0.278 µM to 0.132 µM (2.1-fold).

Going from [2H]C([2H])([2H])NC(=O)c1nnc(Nc2cc(C)nc(C)n2)cc1Nc1nc(F)ccc1S(C)(=O)=O [Example 178, 6-((2,6-dimethylpyrimidin-4-yl)amino)-4-((6-fluoro-3-(methylsulfonyl)pyridin-2-yl)amino)-N-(methyl-d3)pyridazine-3-carboxamide] to [2H]C([2H])([2H])NC(=O)c1nnc(Nc2ccc(OC)nn2)cc1Nc1nc(C)ccc1S(C)(=O)=O [Example 183, 6-((6-methoxypyridazin-3-yl)amino)-N-(methyl-d3)-4-((6-methyl-3-(methylsulfonyl)pyridin-2-yl)amino)pyridazine-3-carboxamide], the IC50 falls from 0.474 µM to 0.105 µM (4.5-fold). The second is the more potent here.

Going from [2H]C([2H])([2H])NC(=O)c1nnc(NC(=O)CC)cc1Nc1nc(OC)ccc1S(C)(=O)=O [Example 199, 4-((6-methoxy-3-(methylsulfonyl)pyridin-2-yl)amino)-N-(methyl-d3)-6-propionamidopyridazine-3-carboxamide] to [2H]C([2H])([2H])NC(=O)c1nnc(Nc2ccc(C(C)(C)O)cc2)cc1Nc1nc(C2CC2)ccc1S(C)(=O)=O [Example 207, 4-((6-cyclopropyl-3-(methylsulfonyl)pyridin-2-yl)amino)-6-((4-(2-hydroxypropan-2-yl)phenyl)amino)-N-(methyl-d3)pyridazine-3-carboxamide], the IC50 falls from 1.03 µM to 0.229 µM (4.5-fold).

Compared with CNC(=O)c1nnc(Nc2ccc(OC)nn2)cc1Nc1ncccc1S(C)(=O)=O [Example 209, 6-((6-methoxypyridazin-3-yl)amino)-N-methyl-4-((3-(methylsulfonyl)pyridin-2-yl)amino)pyridazine-3-carboxamide], COc1ccc(Nc2cc(Nc3ncccc3S(C)(=O)=O)c(C(N)=O)nn2)nn1 [Example 213, 6-((6-methoxypyridazin-3-yl)amino)-4-((3-(methylsulfonyl)pyridin-2-yl)amino)pyridazine-3-carboxamide] is 2-fold higher in IC50: 0.056 µM for the first, 0.114 µM for the second. The first is the more potent here.

Compared with CCNC(=O)c1nnc(Nc2ccc(C(C)(C)O)cn2)cc1Nc1ncccc1S(C)(=O)=O [Example 211, N-ethyl-6-((5-(2-hydroxypropan-2-yl)pyridin-2-yl)amino)-4-((3-(methylsulfonyl)pyridin-2-yl)amino)pyridazine-3-carboxamide], [2H]C([2H])([2H])NC(=O)c1cnc(Nc2ccc(F)cn2)cc1Nc1ncccc1S(C)(=O)=O [Example 215, 6-((5-fluoropyridin-2-yl)amino)-N-(methyl-d3)-4-((3-(methylsulfonyl)pyridin-2-yl)amino)nicotinamide] is 4.3-fold lower in IC50: 0.09 µM for the first, 0.021 µM for the second. The second is the more potent here.
